Reference: patent publication EP2229935A1, “Peptide derivatives or pharmaceutically acceptable salts thereof, method for producing the same, use of said derivatives and pharmaceutical composition” (Nebolsin, Vladimir Evgenievich, priority 1997, dated 1999)
Where “and” joins values, the source holds several entries; their conditions need not be identical. Identical values can stand only once. Like-named read-outs stand apart in the source and are kept apart here. Marks after values point to notes of the source that are not given here.

How the values were obtained:
mongrel male rats = conditions: po, 96 h
Human lymphocytes [1] = test: Concanavalin A-induced blasttransformation of lymphocytes; assay type: cell-based
Description: (§1) Human lymphocytes were used for blasttransformation reaction [Kiseleva E.P., Tsveibakh A.S., Goldman E.I., Pigareva N.V. Application of a micromethod to study blasttransformation of lymphocytes in humans and animals. Immunology (1985), No 1, pp. 76-78]. 10 ml blood were collected into a sterile syringe containing heparine (to final concentration 25 U/ml) and incubated to sediment red blood cells (60-90 minutes at 37°C). Leukocytic suspension layer was selected and the number of nucleated cells was calculated. The cells obtained in such a way were incubated for 72 hours in a humid atmosphere with 5% CO2 at 37°C in the cells of plates for immune reactions in RPMI-1640 medium comprising 15% fetal calf serum, […] Neomycine (incubation mixture volume 0.15 ml). 5 x 10^5 cells were introduced into each plate cell. Incubation was carried out in the presence or absence of mitogen phytohemagglutinin (PHA) (Sigma) […] or concanavalin A (ConA) (Sigma) […] with or without addition of the test compounds at different concentrations. […] H^3 -thymidine in RPMI-1640 medium were introduced into each cell 16 hours before incubation termination. Following culturing period termination, 0.15 ml cellular suspension from each plate cell were transferred on the FN-8 paper filters. Filters were dried, washed two times with normal saline for 5 minutes then twice with TCA for 60 minutes. After drying, radioactivity of samples was calculated on a counter in the ZhS-8 scintillator. Stimulation index was calculated as ratio of sample radioactivity with mitogen to sample radioactivity without mitogen.

white mongrel male rats = test: Paw edema induced by Freund's complete adjuvant; assay type: in vivo
Description: Experiment was carried out on white mongrel male rats weghing 280-300 g. The model of paw edema induced by Freund's complete adjuvant (FCA), was reproduced according to the method of Ezamuzie and Umezurike [Ezamuzie Ch., Umezurike C.C. Effect of histamine H2-receptor antagonists on acute inflammatory of the rat paw oedema. J. Pharmacol. (1989), Vol. 41, pp. 261-265]. Paw volume measurement was done using a plethysmograph (Ugo Basile). Inhibition of inflammatory reaction expressed in percent, as calculated according to the formula: 100-[(R-L(exper.))/(L):(R-L(control))/(L)x100](%) [formula] where R - the right paw volume, L - the left paw volume.
Each group included 10 animals.
Group of animals: • Group 1 - control, animals were administered 0.5 ml of 1% starch solution. • Group 2 - animals were administered the compound XLVIII. • Group 3 - animals were administered the compound III. • Group 4 - animals were administered Naproxene.

Wistar rats = test: Non-infectious pulmonary granulomatosis model (aerosol Sephadex A-25); conditions: intragastral 50 mg/kg once daily
Description: Antiinflammatory and immunomodulating effect of the compound III with intragastral administration was studied on the non-infectious pulmonary granulomatosis model.
20 female 4 months old Wistar rats weighing 200-220 g were used in exepriment.
Sephadex A-25 at a dose 5 mg per 1 kg of body mass, as administered to rats under ether anesthesia using an original dosing device for inhalation administering dry powders manufactured at the Scientific-Research Institute for Medical Instrument-Making. […] Compound III was administered intragastrally using a gastric probe at a dose 50 mg per 1 kg of body mass and immediately after that, single aerosol administration of Sephadex A-25 was performed according to the earlier described technique. Then compound III was administered intragastrally once daily for 6 days at a dose 50 mg/kg of body mass in the form of water solution. Rats were examined by day 7 after commencement of administering compound III and Sephadex A-25.
Bronchoalveolar lavage was obtained under Hexenal anesthesia. Cytosis, i.e. absolute number of cells in 1 ml was determined in the bronchoalveolar lavage fluid. Endopulmonal cytogram (in percent) was calculated in the smears stained according to Romanovsky-Gimza. […] Histological examination of lungs stained with hematoxylin and eosine was performed. Volume density of alveolitis and emphysema was determined using the point count method.

mongrel male mice = test: Delayed hypersensitivity induced by picryl chloride (TCB), local ointment; assay type: in vivo
Description: Effect study of the compounds on the delayed type hypersensitivity reaction induced in mice by 2.4.6-trichlorobenzol (TCB) was carried out according to the method of Tarayre et al. [Tarayre J.P., Barbara M., Aliaga M., Tisne-Versilles. Comparative actions of immunosuppressants, glucocorticoids and non-steroidal antiinflammatory drugs on various models of delayed hypersensitivity and on a non-immune inflammation in mice. Arzneim.-Forsch. Drug Res. (1990), Vol. 40, pip.1125-1131].
Studies were conducted on mongrel male mice with initial body mass 30-35 g. Each group included 10 animals. Mice were sensitized with 0.1 ml 3% TCB solution in acetone application on a shaved abdominal area. In 7 days, the anaphylaxis-provoking TCB dose (0.025 ml of 3% solution) was applied on both surfaces of the right ear. In 30 minutes 0.05 ml of the test ointment were rubbed into the same surfaces. 24 hours after edema induction, mice were sacrified, ears were cut off and weighed. Allergic reaction intensity was assessed by change in weight in grams of the right ear (the test one) in relation to the left ear (the control ear).
Allergic reaction inhibition expressed in percent was calculated according to the formula: 100-[(R-L(exper.))/(L):(R-L(control))/(L)x100](%) [formula] where R - the right ear weight, L - the left ear weight.
The test compounds were applied on the ear in the form of 1% and 5% ointment the base of which were 10% methylcellulose solution and propylene glycol at 1:1 ratio.
Groups of animals: • Group 1 - control, ointment base without active substance was applied on the ear of animals. • Group 2 - ointment base comprising 1% compound III was applied on the ear of animals. • Group 3 - ointment base comprising 1% compound XVII was applied on the ear of animals. • Group 4 - ointment base comprising 5% compound XLVIII was applied on the ear of animals.

Human lymphocytes [2] = test: PHA-induced blasttransformation of lymphocytes; assay type: cell-based
Description: as §1

[3] = Wistar rats, day 7 after aerosol Sephadex A-25
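Wherever HDL-CS is given: serum drawn 18 h after the final dose from rats deprived of food over that interval, groups of 10 animals.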
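Wherever Kcs is given: serum drawn 18 h after the final dose from rats deprived of food over that interval, groups of 10 animals.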
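Wherever LDL-CS+ VLDL-CS is given: serum drawn 18 h after the final dose from rats deprived of food over that interval, groups of 10 animals.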
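Wherever Total CS is given: serum drawn 18 h after the final dose from rats deprived of food over that interval, groups of 10 animals.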

Compound: O=C(O)CCCC(=O)NCCc1c[nH]cn1 [compound III, N-GLUTARYLHISTAMINE]
- HDL-CS (mongrel male rats; 0.05 mg/kg): 46,1±2,8**^A
- Kcs (mongrel male rats; 0.05 mg/kg): 0,9±0,04***^A
- LDL-CS+ VLDL-CS (mongrel male rats; 0.05 mg/kg): 41,7±3,1***^A
- Total CS (mongrel male rats; 0.05 mg/kg): 87,8±2,8*^A
- Triglycerides (mongrel male rats; 0.05 mg/kg): 136,4±9,7
- HDL-CS (mongrel male rats; 0.5 mg/kg): 53,1±6,2*^A
- Kcs (mongrel male rats; 0.5 mg/kg): 0,62±0,05***^A
- LDL-CS+ VLDL-CS (mongrel male rats; 0.5 mg/kg): 33,1±2,9***^A
- Total CS (mongrel male rats; 0.5 mg/kg): 86,2±5,6
- Triglycerides (mongrel male rats; 0.5 mg/kg): 90,0±6,7***^A
- blasttranformation reaction of human lymphocytes induced by ConA (Human lymphocytes [1]): stimulating effect
- Radioactivity, number of pulses for 20 seconds (Human lymphocytes [1]; 10^-3 M/l, +ConA): 680 ± 82 number of pulses for 20 seconds
- Stimulation index (Human lymphocytes [1]; 10^-3 M/l, +ConA): 2.06
- Radioactivity, number of pulses for 20 seconds (Human lymphocytes [1]; 10^-3 M/l, no mitogen): 330 ± 105 number of pulses for 20 seconds
- Radioactivity, number of pulses for 20 seconds (Human lymphocytes [1]; 10^-4 M/l, +ConA): 1197±97 number of pulses for 20 seconds
- Stimulation index (Human lymphocytes [1]; 10^-4 M/l, +ConA): 4.37
- Radioactivity, number of pulses for 20 seconds (Human lymphocytes [1]; 10^-4 M/l, no mitogen): 274 ± 28 number of pulses for 20 seconds
- Radioactivity, number of pulses for 20 seconds (Human lymphocytes [1]; 10^-5 M/l, +ConA): 1562 ± 134 number of pulses for 20 seconds
- Stimulation index (Human lymphocytes [1]; 10^-5 M/l, +ConA): 3.34
- Radioactivity, number of pulses for 20 seconds (Human lymphocytes [1]; 10^-5 M/l, no mitogen): 467 ± 109 number of pulses for 20 seconds
- Radioactivity, number of pulses for 20 seconds (Human lymphocytes [1]; 10^-6 M/l, +ConA): 1922 ± 248 number of pulses for 20 seconds
- Stimulation index (Human lymphocytes [1]; 10^-6 M/l, +ConA): 4.71
- Radioactivity, number of pulses for 20 seconds (Human lymphocytes [1]; 10^-6 M/l, no mitogen): 408 ± 75 number of pulses for 20 seconds
- Radioactivity, number of pulses for 20 seconds (Human lymphocytes [1]; 10^-7 M/l, +ConA): 1483 ± 67 number of pulses for 20 seconds
- Stimulation index (Human lymphocytes [1]; 10^-7 M/l, +ConA): 3.10
- Radioactivity, number of pulses for 20 seconds (Human lymphocytes [1]; 10^-7 M/l, no mitogen): 478 ± 35 number of pulses for 20 seconds
- Radioactivity, number of pulses for 20 seconds (Human lymphocytes [1]; 10^-8 M/l, +ConA): 849 ± 133 number of pulses for 20 seconds
- Stimulation index (Human lymphocytes [1]; 10^-8 M/l, +ConA): 3.63
- Radioactivity, number of pulses for 20 seconds (Human lymphocytes [1]; 10^-8 M/l, no mitogen): 234 ± 36 number of pulses for 20 seconds
- Volume of paws (conditional units) Right (white mongrel male rats): 1.85 ± 0.62 conditional units
- Volume of paws (conditional units) left (white mongrel male rats): 1.25 ± 0.34 conditional units
- Volume density in percent: Alveolitis (Wistar rats; [3]): 3.8±0.1% and 3.8 ± 1.0%
- Volume density in percent: Emphysema (Wistar rats; [3]): 11.2±3.2%
- Cytosis (absolute number of cells in 1 ml) (Wistar rats; bronchoalveolar lavage, day 7): 0.169 ± 0.054
- Endopulmonary cytogram in percent: Lymphocytes (Wistar rats; bronchoalveolar lavage, day 7): 7.6 ± 1.5%
- Endopulmonary cytogram in percent: Macrophages (Wistar rats; bronchoalveolar lavage, day 7): 75.2 ± 4.5%
- Endopulmonary cytogram in percent: Neutrophils (Wistar rats; bronchoalveolar lavage, day 7): 16.8 ± 2.6%
- Volume density of lymphoid follicles in percent (Wistar rats; lymphoid tissue associated with bronchi, day 7): 34.7 ± 10.3%
- Weight of years (g) left (mongrel male mice): 15.4 ± 1.12 g
- Reaction inhibition (%) (mongrel male mice; mice, TCB, 1% ointment): 38%
- weight increment (mongrel male mice; mice, TCB, 1% ointment): 4.9 ± 0.5 g

Compound: γ-L-glutamylhistamine [compound XLIV]
- blasttranformation reaction of human lymphocytes induced by ConA (Human lymphocytes [1]): stimulating effect
- Radioactivity, number of pulses for 20 seconds (Human lymphocytes [1]; 10^-3 M/l, +ConA): 1072 ± 135 number of pulses for 20 seconds
- Stimulation index (Human lymphocytes [1]; 10^-3 M/l, +ConA): 3.01
- Radioactivity, number of pulses for 20 seconds (Human lymphocytes [1]; 10^-3 M/l, no mitogen): 356±51 number of pulses for 20 seconds
- Radioactivity, number of pulses for 20 seconds (Human lymphocytes [1]; 10^-4 M/l, +ConA): 1259 ± 90 number of pulses for 20 seconds
- Stimulation index (Human lymphocytes [1]; 10^-4 M/l, +ConA): 3.91
- Radioactivity, number of pulses for 20 seconds (Human lymphocytes [1]; 10^-4 M/l, no mitogen): 322 ± 38 number of pulses for 20 seconds
- Radioactivity, number of pulses for 20 seconds (Human lymphocytes [1]; 10^-5 M/l, +ConA): 1695 ± 139 number of pulses for 20 seconds
- Stimulation index (Human lymphocytes [1]; 10^-5 M/l, +ConA): 5.00
- Radioactivity, number of pulses for 20 seconds (Human lymphocytes [1]; 10^-5 M/l, no mitogen): 339 ± 32 number of pulses for 20 seconds
- Radioactivity, number of pulses for 20 seconds (Human lymphocytes [1]; 10^-6 M/l, +ConA): 1963 ± 205 number of pulses for 20 seconds
- Stimulation index (Human lymphocytes [1]; 10^-6 M/l, +ConA): 6.96
- Radioactivity, number of pulses for 20 seconds (Human lymphocytes [1]; 10^-6 M/l, no mitogen): 289 ± 52 number of pulses for 20 seconds
- Radioactivity, number of pulses for 20 seconds (Human lymphocytes [1]; 10^-7 M/l, +ConA): 1786 ± 241 number of pulses for 20 seconds
- Stimulation index (Human lymphocytes [1]; 10^-7 M/l, +ConA): 7.38
- Radioactivity, number of pulses for 20 seconds (Human lymphocytes [1]; 10^-7 M/l, no mitogen): 242 ± 19 number of pulses for 20 seconds
- Radioactivity, number of pulses for 20 seconds (Human lymphocytes [1]; 10^-8 M/l, +ConA): 971 ± 44 number of pulses for 20 seconds
- Stimulation index (Human lymphocytes [1]; 10^-8 M/l, +ConA): 4.17
- Radioactivity, number of pulses for 20 seconds (Human lymphocytes [1]; 10^-8 M/l, no mitogen): 233 ± 54 number of pulses for 20 seconds
- blasttranformation reaction of human lymphocytes induced by PHA (Human lymphocytes [2]): stimulating effect
- Radioactivity, number of pulses for 20 seconds (Human lymphocytes [2]; 10^-4 M/l, +PHA): 3276 ± 225 number of pulses for 20 seconds
- Stimulation index (Human lymphocytes [2]; 10^-4 M/l, +PHA): 10.9
- Radioactivity, number of pulses for 20 seconds (Human lymphocytes [2]; 10^-4 M/l, no mitogen): 301 ± 103 number of pulses for 20 seconds
- Radioactivity, number of pulses for 20 seconds (Human lymphocytes [2]; 10^-5 M/l, +PHA): 2999 ± 213 number of pulses for 20 seconds
- Stimulation index (Human lymphocytes [2]; 10^-5 M/l, +PHA): 23.2
- Radioactivity, number of pulses for 20 seconds (Human lymphocytes [2]; 10^-5 M/l, no mitogen): 132 ± 13 number of pulses for 20 seconds
- Radioactivity, number of pulses for 20 seconds (Human lymphocytes [2]; 10^-6 M/l, +PHA): 4414 ± 570 number of pulses for 20 seconds
- Stimulation index (Human lymphocytes [2]; 10^-6 M/l, +PHA): 29.6
- Radioactivity, number of pulses for 20 seconds (Human lymphocytes [2]; 10^-6 M/l, no mitogen): 150 ± 33 number of pulses for 20 seconds
- Radioactivity, number of pulses for 20 seconds (Human lymphocytes [2]; 10^-7 M/l, +PHA): 2960 ± 210 number of pulses for 20 seconds
- Stimulation index (Human lymphocytes [2]; 10^-7 M/l, +PHA): 9.9
- Radioactivity, number of pulses for 20 seconds (Human lymphocytes [2]; 10^-7 M/l, no mitogen): 300 ± 107 number of pulses for 20 seconds
- Radioactivity, number of pulses for 20 seconds (Human lymphocytes [2]; 10^-8 M/l, +PHA): 3830 ± 286 number of pulses for 20 seconds
- Stimulation index (Human lymphocytes [2]; 10^-8 M/l, +PHA): 14.7
- Radioactivity, number of pulses for 20 seconds (Human lymphocytes [2]; 10^-8 M/l, no mitogen): 261 ± 100 number of pulses for 20 seconds
